Values quoted from earlier work in patent publication EP0712633A1, “Pharmaceutical compositions for topical application” (Blank, Izhak, priority 1994, dated 1996).

Conditions: 6-carboxylfluorescein

increase of penetration compared to the control (pretreatment of the skin with 4%) | Structure (SMILES) | increase of plasma levels of the dye compared with a control (0.1% w/v in conjunction with sodium dodecyl sulfate 0.05% w/v)
9 times | O=C(O)CS [calcium thioglycolate] | –
– | OCCS [2-mercaptoethanol] | 40 times
